# Measurements published in ChEMBL document CHEMBL1201862, “PubChem BioAssay data set” (2004).
# The source made the active and inactive calls.
# Key:
# [1] = biological target: T1, Calpain-2 catalytic subunit (Sus scrofa, UniProt P43367); experiment: m-calpain protease blockers, concentration series – biochemical, fluorogenic peptide substrate, dose response (AID 1420); type: functional
# T1 sequence (P43367 whole entry): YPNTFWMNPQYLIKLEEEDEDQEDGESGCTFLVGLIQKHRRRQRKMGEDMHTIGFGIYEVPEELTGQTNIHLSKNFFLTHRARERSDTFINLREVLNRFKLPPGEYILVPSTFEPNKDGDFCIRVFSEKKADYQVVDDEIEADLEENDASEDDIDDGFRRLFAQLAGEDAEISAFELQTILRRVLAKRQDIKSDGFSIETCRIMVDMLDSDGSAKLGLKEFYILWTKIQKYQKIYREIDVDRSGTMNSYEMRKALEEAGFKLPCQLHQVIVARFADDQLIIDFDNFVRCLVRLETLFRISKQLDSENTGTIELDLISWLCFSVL
# [2] = biological target: Arf-GAP with SH3 domain, ANK repeat and PH domain-containing protein 1 (Homo sapiens, UniProt Q9ULH1); type: functional;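 also: biochemical fluorescence polarization dose–response screen measuring inhibition of ASAP1; ASAP1 GAP domain stimulating GTP hydrolysis by truncated human ARF1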
# Arf-GAP with SH3 domain, ANK repeat and PH domain-containing protein 1, sequence (Q9ULH1 whole entry, the tested form may be a part): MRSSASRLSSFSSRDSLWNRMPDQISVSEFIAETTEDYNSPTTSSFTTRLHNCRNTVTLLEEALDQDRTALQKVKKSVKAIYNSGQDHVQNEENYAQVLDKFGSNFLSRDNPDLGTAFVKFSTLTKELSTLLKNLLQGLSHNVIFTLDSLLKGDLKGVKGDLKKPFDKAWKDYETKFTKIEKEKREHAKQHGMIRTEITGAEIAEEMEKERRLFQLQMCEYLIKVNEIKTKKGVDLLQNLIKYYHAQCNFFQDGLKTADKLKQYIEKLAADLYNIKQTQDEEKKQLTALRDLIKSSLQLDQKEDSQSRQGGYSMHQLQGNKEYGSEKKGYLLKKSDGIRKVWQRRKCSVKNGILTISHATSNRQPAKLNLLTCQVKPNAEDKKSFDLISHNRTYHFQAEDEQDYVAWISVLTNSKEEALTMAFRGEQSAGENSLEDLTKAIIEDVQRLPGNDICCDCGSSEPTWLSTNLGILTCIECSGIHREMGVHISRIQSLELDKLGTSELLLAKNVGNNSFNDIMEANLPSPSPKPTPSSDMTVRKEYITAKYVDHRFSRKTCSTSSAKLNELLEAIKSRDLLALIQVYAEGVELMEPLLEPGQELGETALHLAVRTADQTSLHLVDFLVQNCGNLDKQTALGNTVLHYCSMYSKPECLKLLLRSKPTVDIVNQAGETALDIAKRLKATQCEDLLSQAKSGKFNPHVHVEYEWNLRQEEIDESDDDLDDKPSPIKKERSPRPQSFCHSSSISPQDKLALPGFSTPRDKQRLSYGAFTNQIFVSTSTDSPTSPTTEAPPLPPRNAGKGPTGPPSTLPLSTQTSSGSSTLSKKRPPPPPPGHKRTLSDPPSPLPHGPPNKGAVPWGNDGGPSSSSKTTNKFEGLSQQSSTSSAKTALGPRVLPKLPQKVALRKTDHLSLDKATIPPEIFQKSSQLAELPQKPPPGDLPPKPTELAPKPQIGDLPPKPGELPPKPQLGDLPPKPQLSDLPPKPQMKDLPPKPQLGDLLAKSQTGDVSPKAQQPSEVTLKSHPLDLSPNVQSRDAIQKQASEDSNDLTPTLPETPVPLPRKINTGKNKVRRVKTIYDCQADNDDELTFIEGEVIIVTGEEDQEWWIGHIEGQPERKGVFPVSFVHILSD
# [3] = biological target: DNA repair protein RAD52 homolog (Homo sapiens, UniProt P43351); type: functional, biochemical
# [4] = biological target: T2, Replicative DNA helicase DnaB (Mycobacterium tuberculosis, UniProt P9WMR3); experiment: DnaB intein splicing inhibitors, dose response, biochemical, cell-free fluorescence (AID 449749); type: functional
# T2 sequence (P9WMR3 whole entry): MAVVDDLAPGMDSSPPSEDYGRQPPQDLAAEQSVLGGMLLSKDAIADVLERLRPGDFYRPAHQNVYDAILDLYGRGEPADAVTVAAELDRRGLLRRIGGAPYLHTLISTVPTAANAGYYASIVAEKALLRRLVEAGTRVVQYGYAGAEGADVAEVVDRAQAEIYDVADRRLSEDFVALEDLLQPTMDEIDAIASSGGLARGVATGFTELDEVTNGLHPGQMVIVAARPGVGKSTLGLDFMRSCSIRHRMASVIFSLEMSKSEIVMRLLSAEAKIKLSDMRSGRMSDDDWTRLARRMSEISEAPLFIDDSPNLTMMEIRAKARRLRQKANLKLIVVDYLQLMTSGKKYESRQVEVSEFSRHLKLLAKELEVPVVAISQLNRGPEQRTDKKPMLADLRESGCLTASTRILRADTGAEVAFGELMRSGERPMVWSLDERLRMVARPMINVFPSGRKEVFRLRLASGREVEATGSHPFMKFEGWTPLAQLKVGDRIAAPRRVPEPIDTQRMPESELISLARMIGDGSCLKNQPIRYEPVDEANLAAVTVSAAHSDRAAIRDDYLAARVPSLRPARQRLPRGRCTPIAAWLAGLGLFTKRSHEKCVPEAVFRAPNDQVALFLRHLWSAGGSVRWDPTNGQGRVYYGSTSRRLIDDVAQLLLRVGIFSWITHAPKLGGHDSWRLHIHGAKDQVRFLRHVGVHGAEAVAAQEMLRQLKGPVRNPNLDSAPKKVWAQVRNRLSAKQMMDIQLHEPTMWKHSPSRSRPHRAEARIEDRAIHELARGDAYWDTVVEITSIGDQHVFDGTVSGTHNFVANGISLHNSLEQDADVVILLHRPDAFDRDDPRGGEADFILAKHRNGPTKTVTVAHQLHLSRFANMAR
# [5] = biological target: T3, Protein RecA (Mycobacterium tuberculosis, UniProt P9WHJ3); experiment: Fluorescence Cell-Free Homogeneous Dose Retest to Identify Inhibitors of RecA-Intein Splicing Activity. [Related pubchem assays (depositor defined):AID2097, AID2223, AID489010, AID492950]; type: functional
# T3 sequence (P9WHJ3 whole entry): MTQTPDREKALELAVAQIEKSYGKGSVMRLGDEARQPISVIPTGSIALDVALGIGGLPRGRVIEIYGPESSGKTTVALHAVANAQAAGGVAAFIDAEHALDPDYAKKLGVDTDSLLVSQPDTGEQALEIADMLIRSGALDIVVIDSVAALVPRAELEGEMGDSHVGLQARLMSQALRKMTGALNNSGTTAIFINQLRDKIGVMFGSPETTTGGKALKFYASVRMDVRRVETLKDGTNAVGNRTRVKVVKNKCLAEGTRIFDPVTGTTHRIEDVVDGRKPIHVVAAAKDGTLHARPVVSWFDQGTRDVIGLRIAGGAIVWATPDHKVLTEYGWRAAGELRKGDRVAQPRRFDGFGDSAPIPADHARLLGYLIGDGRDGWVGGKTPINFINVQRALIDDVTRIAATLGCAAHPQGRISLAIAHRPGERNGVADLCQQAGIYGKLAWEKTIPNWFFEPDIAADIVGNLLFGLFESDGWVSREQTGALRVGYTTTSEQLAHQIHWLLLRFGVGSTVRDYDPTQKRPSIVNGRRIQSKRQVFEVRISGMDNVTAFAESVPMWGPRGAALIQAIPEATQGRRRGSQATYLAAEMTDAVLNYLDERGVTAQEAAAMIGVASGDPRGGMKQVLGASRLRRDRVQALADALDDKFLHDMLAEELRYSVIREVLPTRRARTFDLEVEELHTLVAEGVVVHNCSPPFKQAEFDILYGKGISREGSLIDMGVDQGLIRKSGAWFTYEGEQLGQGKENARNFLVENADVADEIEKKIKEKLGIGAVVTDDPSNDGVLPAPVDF
# [6] = biological target: Long-chain-fatty-acid--AMP ligase FadD28 (Mycobacterium tuberculosis, UniProt P9WQ59); experiment: Fluorescence polarization aasay to screen for inhibitors that compete for the binding of FadD28 to a bisubstrate Measured in Biochemical System Using Plate Reader - 2147-01_Inhibitor_Dose_CherryPick_Activity.; type: functional, Mycobacterium tuberculosis H37Rv
# Long-chain-fatty-acid--AMP ligase FadD28, sequence (P9WQ59 whole entry, the tested form may be a part): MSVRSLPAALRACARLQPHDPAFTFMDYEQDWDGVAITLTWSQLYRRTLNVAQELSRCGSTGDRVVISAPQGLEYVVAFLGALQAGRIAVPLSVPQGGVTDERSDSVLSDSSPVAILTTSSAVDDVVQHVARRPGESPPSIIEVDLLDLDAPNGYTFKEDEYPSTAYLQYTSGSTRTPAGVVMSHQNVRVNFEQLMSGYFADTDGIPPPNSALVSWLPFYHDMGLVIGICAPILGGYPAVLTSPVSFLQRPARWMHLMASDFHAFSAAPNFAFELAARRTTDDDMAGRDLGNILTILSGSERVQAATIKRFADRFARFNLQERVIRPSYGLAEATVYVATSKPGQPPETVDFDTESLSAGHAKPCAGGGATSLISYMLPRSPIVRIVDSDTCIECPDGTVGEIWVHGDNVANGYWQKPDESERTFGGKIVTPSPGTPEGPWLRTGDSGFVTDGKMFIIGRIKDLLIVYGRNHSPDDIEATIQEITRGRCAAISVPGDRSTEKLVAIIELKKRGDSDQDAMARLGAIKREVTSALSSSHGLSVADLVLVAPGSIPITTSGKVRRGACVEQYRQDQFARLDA
# [7] = biological target: T4, Sentrin-specific protease 1 (Homo sapiens, UniProt Q9P0U3); experiment: SENP1 catalytic domain blockers, concentration series – biochemical, kinetic FRET, dose response (AID 651697); type: functional; conditions: read-out: IC50_Mean
# T4 sequence (Q9P0U3 whole entry): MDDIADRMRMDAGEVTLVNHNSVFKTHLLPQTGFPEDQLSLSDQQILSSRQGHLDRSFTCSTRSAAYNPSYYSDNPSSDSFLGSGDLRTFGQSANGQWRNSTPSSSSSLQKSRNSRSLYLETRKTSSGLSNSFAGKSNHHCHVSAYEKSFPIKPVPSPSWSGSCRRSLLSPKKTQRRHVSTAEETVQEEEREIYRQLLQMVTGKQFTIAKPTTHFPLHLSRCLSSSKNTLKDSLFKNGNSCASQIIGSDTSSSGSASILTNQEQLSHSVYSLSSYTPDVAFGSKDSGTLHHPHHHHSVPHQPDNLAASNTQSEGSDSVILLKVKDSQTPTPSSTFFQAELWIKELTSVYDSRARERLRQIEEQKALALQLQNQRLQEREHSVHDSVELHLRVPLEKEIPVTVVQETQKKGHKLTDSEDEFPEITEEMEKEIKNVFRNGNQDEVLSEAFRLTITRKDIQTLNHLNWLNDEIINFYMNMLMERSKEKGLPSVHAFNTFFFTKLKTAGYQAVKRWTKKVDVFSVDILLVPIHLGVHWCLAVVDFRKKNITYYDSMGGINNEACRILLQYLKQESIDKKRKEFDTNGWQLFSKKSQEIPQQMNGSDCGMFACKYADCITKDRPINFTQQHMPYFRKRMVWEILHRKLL
# [8] = biological target: T5, Zinc finger protein mex-5 (Caenorhabditis elegans, UniProt Q9XUB2); experiment: potency of MEX-5 RNA-binding blockers – biochemical, C. elegans, fluorescence polarization, dose response (AID 1960)
# T5 sequence (Q9XUB2 whole entry): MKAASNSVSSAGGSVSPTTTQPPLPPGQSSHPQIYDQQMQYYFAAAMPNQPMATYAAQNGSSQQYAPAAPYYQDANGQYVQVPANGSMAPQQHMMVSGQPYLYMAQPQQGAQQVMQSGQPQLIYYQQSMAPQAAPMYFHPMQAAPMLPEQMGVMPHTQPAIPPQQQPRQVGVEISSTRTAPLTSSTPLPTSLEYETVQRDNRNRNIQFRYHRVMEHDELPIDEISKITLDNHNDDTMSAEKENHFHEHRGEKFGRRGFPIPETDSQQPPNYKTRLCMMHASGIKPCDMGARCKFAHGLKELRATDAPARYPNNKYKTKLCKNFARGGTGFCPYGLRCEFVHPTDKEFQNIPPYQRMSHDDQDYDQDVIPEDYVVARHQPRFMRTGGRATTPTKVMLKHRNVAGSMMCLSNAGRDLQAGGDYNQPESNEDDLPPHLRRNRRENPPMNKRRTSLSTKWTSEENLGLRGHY
# [9] = biological target: T4, Sentrin-specific protease 1; experiment: Dose response confirmation of small molecule inhibitors of the catalytic domain of the SUMO protease, SENP1 in a FRET assay.; type: functional; conditions: read-out: IC50_Mean
# [10] = biological target: T6, RNA-binding protein pos-1 (Caenorhabditis elegans, UniProt G5EF15); experiment: disruptors of C. elegans POS-1 RNA interaction – biochemical, fluorescence polarization, dose response (AID 1964);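 also: purified POS-1 fused to maltose binding protein made in E. coli; potency of compounds blocking POS-1 binding to fluorescent RNA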
# T6 sequence (G5EF15 whole entry): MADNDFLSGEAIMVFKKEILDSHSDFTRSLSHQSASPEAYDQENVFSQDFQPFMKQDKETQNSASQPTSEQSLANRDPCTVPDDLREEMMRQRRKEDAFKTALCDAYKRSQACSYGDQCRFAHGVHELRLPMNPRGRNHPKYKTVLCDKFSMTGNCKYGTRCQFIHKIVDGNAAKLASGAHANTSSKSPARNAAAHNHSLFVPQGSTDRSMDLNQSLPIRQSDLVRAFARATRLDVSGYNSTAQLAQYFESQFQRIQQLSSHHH
# [11] = biological target: Nonstructural protein 1 (Influenza A virus, UniProt Q194T2); type: functional, Influenza A virus (A/California/07/2009(H1N1))
# [12] = biological target: Histone-lysine N-methyltransferase NSD2 (Homo sapiens, UniProt O96028); type: biochemical
# Histone-lysine N-methyltransferase NSD2, sequence (O96028 whole entry): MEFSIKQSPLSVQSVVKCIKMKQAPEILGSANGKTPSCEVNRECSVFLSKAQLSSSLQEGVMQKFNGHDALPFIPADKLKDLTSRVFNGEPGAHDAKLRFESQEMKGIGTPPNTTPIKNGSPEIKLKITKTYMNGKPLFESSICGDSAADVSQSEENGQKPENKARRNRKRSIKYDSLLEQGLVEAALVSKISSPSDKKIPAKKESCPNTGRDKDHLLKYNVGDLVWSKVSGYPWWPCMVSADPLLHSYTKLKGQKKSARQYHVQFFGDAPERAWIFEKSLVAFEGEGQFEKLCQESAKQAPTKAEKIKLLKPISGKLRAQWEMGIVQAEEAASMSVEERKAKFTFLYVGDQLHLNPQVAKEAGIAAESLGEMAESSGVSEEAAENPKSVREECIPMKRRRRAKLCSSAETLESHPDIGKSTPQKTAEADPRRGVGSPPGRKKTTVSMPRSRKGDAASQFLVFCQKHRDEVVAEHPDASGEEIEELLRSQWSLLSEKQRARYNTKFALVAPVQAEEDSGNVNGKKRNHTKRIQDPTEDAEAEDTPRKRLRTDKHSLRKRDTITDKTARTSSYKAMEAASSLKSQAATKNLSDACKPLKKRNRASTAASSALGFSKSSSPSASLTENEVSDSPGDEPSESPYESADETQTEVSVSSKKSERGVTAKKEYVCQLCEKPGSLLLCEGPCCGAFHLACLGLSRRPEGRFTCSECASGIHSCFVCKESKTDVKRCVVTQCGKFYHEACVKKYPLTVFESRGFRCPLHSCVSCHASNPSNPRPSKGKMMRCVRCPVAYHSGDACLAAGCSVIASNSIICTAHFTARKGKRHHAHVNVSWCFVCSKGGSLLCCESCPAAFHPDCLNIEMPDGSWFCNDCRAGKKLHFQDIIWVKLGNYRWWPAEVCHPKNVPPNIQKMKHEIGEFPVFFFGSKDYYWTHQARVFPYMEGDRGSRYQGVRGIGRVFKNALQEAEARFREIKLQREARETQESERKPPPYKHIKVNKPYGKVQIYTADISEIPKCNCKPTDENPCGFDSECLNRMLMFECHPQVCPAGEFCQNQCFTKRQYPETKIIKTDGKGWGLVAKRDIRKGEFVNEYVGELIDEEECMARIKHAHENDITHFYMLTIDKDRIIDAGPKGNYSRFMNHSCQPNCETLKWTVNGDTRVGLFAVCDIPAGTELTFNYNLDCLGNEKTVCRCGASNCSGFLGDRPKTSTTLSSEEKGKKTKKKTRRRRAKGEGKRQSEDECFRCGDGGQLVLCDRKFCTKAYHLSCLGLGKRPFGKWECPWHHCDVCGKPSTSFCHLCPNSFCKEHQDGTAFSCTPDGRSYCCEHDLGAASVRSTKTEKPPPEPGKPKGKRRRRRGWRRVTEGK
# [13] = biological target: Cytochrome P450 2C9 (Homo sapiens, UniProt P11712)
# [14] = HIV-1 AD8 envelope cell-cell fusion blockers – cherry-pick, dose response (AID 652062); type: functional, cell-based;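 also: luciferase signal from cell-cell fusion driven by HIV-1 clade B AD8 Env; potency is for inhibitors of fusion seen as a drop in luminescence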
# [15] = off-target signal loss in HeLa-CEM21 co-culture – HeLa F-luc CTL cells, cherry-picked, counter-screen for HIV-1 Env fusion inhibitor project, dose response (AID 652040); type: functional, cell-based;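 also: potency for signal decrease marking cytotoxic or nonspecific inhibition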
# [16] = test system: Vero; experiment: cells; type: functional; conditions: Chlorocebus sabaeus
# [17] = biological target: T7, Mitochondrial peptide methionine sulfoxide reductase (Bos taurus, UniProt P54149); experiment: Absorbance-based biochemical high throughput dose response assay for activators of Methionine sulfoxide reductase A (MsrA).; type: functional
# T7 sequence (P54149 whole entry): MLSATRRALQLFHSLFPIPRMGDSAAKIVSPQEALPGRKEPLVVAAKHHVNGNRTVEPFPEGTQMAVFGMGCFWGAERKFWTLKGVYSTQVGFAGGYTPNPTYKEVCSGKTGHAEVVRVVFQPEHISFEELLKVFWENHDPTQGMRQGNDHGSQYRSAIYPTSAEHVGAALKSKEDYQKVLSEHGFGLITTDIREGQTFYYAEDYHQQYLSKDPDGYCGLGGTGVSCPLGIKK
# [18] = biological target: SWI/SNF-related matrix-associated actin-dependent regulator of chromatin subfamily A member 2 (Homo sapiens, UniProt P51531); experiment: Luminescence-based cell-based high throughput dose response assay to identify activators of the function of SWI/SNF related, matrix associated, actin dependent regulator of chromatin, subfamily a, member 2 (SMARCA2, BRM).; type: functional
# SWI/SNF-related matrix-associated actin-dependent regulator of chromatin subfamily A member 2, sequence (P51531 whole entry): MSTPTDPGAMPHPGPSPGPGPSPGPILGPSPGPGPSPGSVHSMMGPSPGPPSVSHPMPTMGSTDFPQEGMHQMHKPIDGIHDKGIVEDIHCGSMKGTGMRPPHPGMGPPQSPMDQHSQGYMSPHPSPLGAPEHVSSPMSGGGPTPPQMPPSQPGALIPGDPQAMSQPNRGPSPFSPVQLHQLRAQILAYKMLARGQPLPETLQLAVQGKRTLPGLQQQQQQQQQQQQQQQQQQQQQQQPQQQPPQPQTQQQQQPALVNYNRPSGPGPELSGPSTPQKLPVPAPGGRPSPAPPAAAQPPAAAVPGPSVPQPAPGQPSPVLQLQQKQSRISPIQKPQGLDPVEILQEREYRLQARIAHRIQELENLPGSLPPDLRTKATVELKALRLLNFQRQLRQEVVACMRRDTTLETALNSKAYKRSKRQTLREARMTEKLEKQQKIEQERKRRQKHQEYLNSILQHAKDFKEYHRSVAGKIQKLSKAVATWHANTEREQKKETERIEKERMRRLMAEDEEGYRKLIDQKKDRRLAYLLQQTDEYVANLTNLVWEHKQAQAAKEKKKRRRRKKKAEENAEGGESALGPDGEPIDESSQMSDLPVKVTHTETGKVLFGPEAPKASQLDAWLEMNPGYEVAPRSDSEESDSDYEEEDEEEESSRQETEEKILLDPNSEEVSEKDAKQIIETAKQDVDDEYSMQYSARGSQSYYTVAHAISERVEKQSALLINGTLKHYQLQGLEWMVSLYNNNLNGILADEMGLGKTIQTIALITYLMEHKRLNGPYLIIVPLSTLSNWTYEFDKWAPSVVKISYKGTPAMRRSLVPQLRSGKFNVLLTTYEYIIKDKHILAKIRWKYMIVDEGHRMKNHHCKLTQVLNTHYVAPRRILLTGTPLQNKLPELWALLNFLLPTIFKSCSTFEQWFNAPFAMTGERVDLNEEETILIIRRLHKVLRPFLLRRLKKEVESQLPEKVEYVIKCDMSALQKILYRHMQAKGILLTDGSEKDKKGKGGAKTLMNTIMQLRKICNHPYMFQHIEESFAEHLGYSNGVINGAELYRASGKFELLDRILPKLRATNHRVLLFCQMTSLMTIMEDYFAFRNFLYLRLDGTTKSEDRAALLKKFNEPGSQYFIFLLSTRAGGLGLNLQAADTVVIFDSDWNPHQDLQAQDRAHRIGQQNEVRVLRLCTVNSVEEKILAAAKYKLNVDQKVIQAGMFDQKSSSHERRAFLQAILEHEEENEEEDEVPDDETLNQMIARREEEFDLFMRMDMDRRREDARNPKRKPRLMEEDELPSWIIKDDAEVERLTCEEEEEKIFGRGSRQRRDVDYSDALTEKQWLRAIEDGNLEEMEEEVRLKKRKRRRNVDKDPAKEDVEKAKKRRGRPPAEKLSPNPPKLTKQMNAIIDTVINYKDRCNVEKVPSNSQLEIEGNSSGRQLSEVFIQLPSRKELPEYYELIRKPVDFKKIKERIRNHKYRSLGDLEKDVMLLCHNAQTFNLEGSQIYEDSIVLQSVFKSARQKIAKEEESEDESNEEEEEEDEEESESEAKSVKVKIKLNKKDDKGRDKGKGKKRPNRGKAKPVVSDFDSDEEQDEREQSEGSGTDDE
# [19] = Counterscreen for activators of the function of SWI/SNF related, matrix associated, actin dependent regulator of chromatin, subfamily a, member 2 (SMARCA2, BRM): Luminescence-based cell-based high throughput dose response assay to identify non-selective compounds using the VP16 reporter assay.; type: functional
# [20] = biological target: Protein Wnt-3a (Mus musculus, UniProt P27467); experiment: SAR analysis of small molecule antagonists of Gli-SUFU in a Wnt3a luminescent reporter assay.; type: functional
# Protein Wnt-3a, sequence (P27467 whole entry): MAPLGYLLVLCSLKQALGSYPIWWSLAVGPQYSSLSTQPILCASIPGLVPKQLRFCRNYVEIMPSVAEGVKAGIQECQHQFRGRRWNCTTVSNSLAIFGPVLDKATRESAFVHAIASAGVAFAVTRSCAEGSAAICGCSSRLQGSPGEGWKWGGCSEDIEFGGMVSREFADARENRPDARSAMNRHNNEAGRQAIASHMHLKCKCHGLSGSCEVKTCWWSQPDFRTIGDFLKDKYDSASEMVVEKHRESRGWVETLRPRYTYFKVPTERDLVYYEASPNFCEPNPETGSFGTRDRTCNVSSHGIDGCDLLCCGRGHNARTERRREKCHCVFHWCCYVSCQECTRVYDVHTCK
# [21] = general mammalian cell viability loss – activator set, cherry-pick, cytotoxicity control for miR-122 modulator project, dose response (AID 720690); type: functional, cell-based;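 also: HEK293T human cells scored for general mammalian cytotoxicity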
# [22] = viability loss in A549 lung cancer cells – cell-based, cherry-picks, […], cytotoxicity control, dose response (AID 1053119); type: functional
compound,measurement,setting,value
O=C(Nc1ccc2oc(=O)ccc2c1)c1ccc(-c2ccc(Cl)cc2)o1,IC50,[1],18.2 µM (not active)
same,IC50,[2],9.51 µM (active)
Nc1ccc2[nH]cnc2c1,AC50,[3],6.22 µM (active)
same,AC50,[4],2.92 µM (active)
same,EC50,[5],23.6 µM (active)
Nc1nnc(SCCCOc2ccc(F)cc2)s1,AC50,[6],46.6 µM (active)
COc1ccc2nc3ccccc3nc2c1NC(=O)c1ccc(Br)cc1,IC50,[7],10 µM (active)
same,EC50,[8],6.66 µM (inconclusive)
same,IC50,[9],9.47 µM (active)
same,EC50,[10],6.41 µM (active)
COC1=C(Nc2ccc(OC)cc2)C(=O)c2ccccc2C1=O,IC50,[11],9.3 µM (active)
same,AC50,[12],8.98 µM (active)
Cc1ccc(N=C(S)N(C)Cc2cn(C)c3ccccc23)cc1,AC50,[6],78.8 µM (active)
O=C(Nc1ccc(S(=O)(=O)N2CCCC2)cc1)c1ccc(CN2CCOCC2)cc1,AC50,[13],10 µM (inconclusive)
same,AC50,[14],6.7 µM (active)
same,AC50,[15],> 70 µM (inactive)
COc1cc2sc3ccc(C#Cc4ccccn4)cc3c(=O)c2cc1OC,IC50,[2],22.9 µM (inactive)
O=C(Nc1cccc([N+](=O)[O-])c1)c1ccc([N+](=O)[O-])o1,CC50,[16],12 µM (active)
same,EC50,[17],> 104 µM (inactive)
same,EC50,[18],> 91.2 µM (inactive)
same,EC50,[19],> 91.2 µM (inactive)
Cc1ccc(C(=O)Nc2cc(N3CCCCC3)ncn2)cc1,IC50,[20],> 21.8 µM (inactive)
COc1ccc(CN(C)C[C@@H]2OCCCC[C@H](C)Oc3ccc(NC(=O)Nc4ccc(C(F)(F)F)cc4)cc3C(=O)N([C@H](C)CO)C[C@H]2C)cc1,AC50,[21],16.6 µM (active)
COc1cc(OC)cc(C(=O)Nc2cc(N3CCCCC3)ncn2)c1,IC50,[20],> 21.8 µM (inactive)
CN(C)C(=O)c1ccc(-c2ccc3c(c2)[C@H]2[C@H](CCN2C(=O)c2ccc(F)cc2)[C@@H](CO)N3C)cc1,AC50,[22],> 47 µM (inactive)
O=C1NC(=O)/C(=C/c2c(O)ccc3ccccc23)N1,IC50,[7],6.2 µM (active)
same,IC50,[9],4.34 µM (active)
C=C1C(=O)[C@]23C[C@H]1CC[C@H]2[C@]1(C)[C@@H](O)CC[C@@](C)(C(=O)O)[C@H]1C[C@@H]3O [GEOPYXIN A],EC50,[18],> 91.1 µM (inactive)
same,EC50,[19],> 91.1 µM (inactive)
